# Measurements taken from PubChem BioAssay (NCI).
# “And” between values parts separate entries of the source, which are not always exact repeats. Equal values may be shown once.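 Step 1: Grow cells in 96-well plates. Step 2: Expose to compound for 48 hours at 5 concentrations. Step 3: Interpolate endpoints linearly; if unreached, use highest concentration. GI50 marks 50% less growth. TGI denotes the concentration required for complete inhibition of growth.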
# Experiments:
# Test in all cases: growth of human tumour cells (NCI), 48 h
# [1] = system: NCI/ADR-RES ovarian
# [2] = system: A549 NSCLC
# [3] = system: SNB-19 CNS
# [4] = system: MDA-MB-231 breast
# [5] = system: SR leukemia
# [6] = system: HL-60(TB) leukemia
# [7] = system: HOP-62 NSCLC
# [8] = system: HCC-2998 colon
# [9] = system: OVCAR-8 ovarian
# [10] = system: IGROV1 ovarian
# [11] = system: TK-10 renal
# [12] = system: NCI-H226 lung
# [13] = system: PC-3 prostate
# [14] = system: HCT-15 colon
# [15] = system: OVCAR-3 ovarian
# [16] = system: UACC-62 melanoma
# [17] = system: HT29 colon
# [18] = system: HCT-116 colon
# [19] = system: SF-268 CNS
# [20] = system: HOP-92 NSCLC
# [21] = system: K-562 leukemia
# [22] = system: BT-549 breast
# [23] = system: NCI-H23 lung
# [24] = system: SF-539 CNS
# [25] = system: SF-295 CNS
# [26] = system: MOLT-4 leukemia
# [27] = system: MDA-MB-435
# [28] = system: MDA-N
# [29] = system: CCRF-CEM leukemia
# [30] = system: A498 renal
# [31] = system: U251 CNS
# [32] = system: UO-31 renal
# [33] = system: SK-MEL-2 melanoma
# [34] = system: SK-MEL-5 melanoma
# [35] = system: RXF 393 renal
# [36] = system: T-47D breast
# [37] = system: SN12C renal
# [38] = system: ACHN renal
# [39] = system: MALME-3M melanoma
# [40] = system: DU-145 prostate
# [41] = system: M14 melanoma
# [42] = system: NCI-H460 lung
# [43] = system: KM12 colon
# [44] = system: SK-MEL-28 melanoma
# [45] = system: SK-OV-3 ovarian
# [46] = system: SW-620 colon
# [47] = system: EKVX NSCLC
# [48] = system: OVCAR-5 ovarian
# [49] = system: 786-0 renal
# [50] = system: HS 578T breast
# [51] = system: MCF7 breast
structure (smiles),measurement,setting,value
CN1C2CC(C#N)C1C=CC2=O (stereo not given),GI50,[1],25.7 µM and > 100 µM
same,TGI,[1],82.9 µM and > 100 µM
same,GI50,[2],18.1 µM and > 100 µM
same,TGI,[2],46 µM and > 100 µM
same,TGI,[3],> 100 µM
same,GI50,[4],19.7 µM and > 100 µM
same,TGI,[4],40.7 µM and > 100 µM
same,GI50,[5],24.2 µM and 86.1 µM
same,TGI,[5],> 100 µM
same,TGI,[6],53.4 µM and > 100 µM
same,GI50,[7],27.6 µM and > 100 µM
same,TGI,[7],85.1 µM and > 100 µM
same,GI50,[8],19.5 µM and > 100 µM
same,TGI,[8],51.8 µM and > 100 µM
same,GI50,[9],24.5 µM and > 100 µM
same,TGI,[9],70.9 µM and > 100 µM
same,GI50,[10],42.8 µM and > 100 µM
same,TGI,[10],> 100 µM
same,GI50,[11],40.5 µM and > 100 µM
same,TGI,[11],> 100 µM
same,GI50,[12],24 µM and > 100 µM
same,TGI,[12],59.6 µM and > 100 µM
same,GI50,[13],26.3 µM and > 100 µM
same,TGI,[13],92.1 µM and > 100 µM
same,GI50,[14],13.6 µM and > 100 µM
same,TGI,[14],40.7 µM and > 100 µM
same,GI50,[15],15.5 µM and > 100 µM
same,TGI,[15],30.7 µM and > 100 µM
same,GI50,[16],27.7 µM and 63.2 µM
same,TGI,[16],> 100 µM
same,GI50,[17],17.5 µM and 83.8 µM
same,TGI,[17],59.5 µM and > 100 µM
same,GI50,[18],13.4 µM and 43.8 µM
same,TGI,[18],27.2 µM and > 100 µM
same,GI50,[19],27.2 µM and > 100 µM
same,TGI,[19],> 100 µM
same,GI50,[20],14.5 µM and 62.3 µM
same,TGI,[20],31.4 µM and > 100 µM
same,GI50,[21],14 µM and 78.1 µM
same,TGI,[21],90.2 µM and > 100 µM
same,GI50,[22],38.7 µM and > 100 µM
same,TGI,[22],75.1 µM and > 100 µM
same,GI50,[23],16.2 µM and 60.1 µM
same,TGI,[23],48.6 µM and > 100 µM
same,GI50,[24],18.6 µM and > 100 µM
same,TGI,[24],43.2 µM and > 100 µM
same,TGI,[25],19.1 µM and > 100 µM
same,GI50,[26],15.7 µM and > 100 µM
same,TGI,[26],68.7 µM and > 100 µM
same,GI50,[27],16.9 µM and 89.2 µM
same,TGI,[27],36.7 µM and > 100 µM
same,GI50,[28],19.2 µM and 63.3 µM
same,TGI,[28],43.1 µM and > 100 µM
same,TGI,[29],29.9 µM and > 100 µM
same,GI50,[30],17.5 µM and > 100 µM
same,TGI,[30],35 µM and > 100 µM
same,GI50,[31],12.4 µM and 72.1 µM
same,TGI,[31],61.5 µM and > 100 µM
same,GI50,[32],11.4 µM and > 100 µM
same,TGI,[32],24.1 µM and > 100 µM
same,TGI,[33],51.4 µM and > 100 µM
same,GI50,[34],> 100 µM
same,TGI,[34],> 100 µM
same,GI50,[35],16.7 µM and > 100 µM
same,TGI,[35],36.1 µM and > 100 µM
same,GI50,[36],17.5 µM and > 100 µM
same,TGI,[36],45.1 µM and > 100 µM
same,GI50,[37],> 100 µM
same,TGI,[37],> 100 µM
same,GI50,[38],22.8 µM and > 100 µM
same,TGI,[38],76.9 µM and > 100 µM
same,GI50,[39],14.8 µM and 96.6 µM
same,TGI,[39],31.4 µM and > 100 µM
same,GI50,[40],22.8 µM and 58.9 µM
same,TGI,[40],61.1 µM and > 100 µM
same,GI50,[41],15.9 µM and > 100 µM
same,TGI,[41],30.7 µM and > 100 µM
same,GI50,[42],15.8 µM and 73.2 µM
same,TGI,[42],32.4 µM and > 100 µM
same,GI50,[43],16.9 µM and 88.2 µM
same,TGI,[43],33.5 µM and > 100 µM
same,GI50,[44],17.8 µM and > 100 µM
same,TGI,[44],36.7 µM and > 100 µM
same,TGI,[45],62.4 µM and > 100 µM
same,GI50,[46],15.1 µM and 72.5 µM
same,TGI,[46],43.7 µM and > 100 µM
same,GI50,[47],14.7 µM and 62.1 µM
same,TGI,[47],28 µM and > 100 µM
same,GI50,[48],19.6 µM and > 100 µM
same,TGI,[48],37.3 µM and > 100 µM
same,GI50,[49],17.4 µM and > 100 µM
same,TGI,[49],42.6 µM and > 100 µM
same,GI50,[50],35.4 µM and > 100 µM
same,TGI,[50],> 100 µM
same,TGI,[51],> 100 µM
